Values joined by “and” are separate entries in the source; they are usually repeats but may differ in a detail not shown here. Equal entries are not always repeated. Blank lines part the entries; values can stand above or below the compound they belong to.
Tested on: 966289-007-R4-J1-PDC complex spheroid viability
Experiment: Anticancer human tumor 966289-007-R4-J1-PDC patient-derived pancreatic adenocarcinoma cell line growth inhibition [RAS]
Conditions: for viability, T/C: stronger effect = lower value
Outline: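 Tumour cells grown as complex spheroids with HUVEC endothelial cells and mesenchymal stem cells, treated with RAS pathway inhibitor combinations. Each agent spans half-log steps from near clinical Cmax, or 10 microM where Cmax is unknown.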

[1] = curve of first compound, second compound 0.000949 µM
[2] = curve of first compound, second compound 0.003 µM
[3] = curve of first compound, second compound 0.00949 µM
[4] = curve of first compound, second compound 0.03 µM
[5] = curve of first compound, second compound 0.0949 µM
[6] = curve of first compound, second compound 0.3 µM
[7] = second compound 0.000949 µM, first compound 0.0316 µM
[8] = second compound 0.000949 µM, first compound 0.1 µM
[9] = second compound 0.000949 µM, first compound 0.316 µM
[10] = second compound 0.000949 µM, first compound 1 µM
[11] = second compound 0.000949 µM, first compound 3.16 µM
[12] = second compound 0.000949 µM, first compound 10 µM
[13] = second compound 0.003 µM, first compound 0.0316 µM
[14] = second compound 0.003 µM, first compound 0.1 µM
[15] = second compound 0.003 µM, first compound 0.316 µM
[16] = second compound 0.003 µM, first compound 1 µM
[17] = second compound 0.003 µM, first compound 3.16 µM
[18] = second compound 0.003 µM, first compound 10 µM
[19] = second compound 0.00949 µM, first compound 0.0316 µM
[20] = second compound 0.00949 µM, first compound 0.1 µM
[21] = second compound 0.00949 µM, first compound 0.316 µM
[22] = second compound 0.00949 µM, first compound 1 µM
[23] = second compound 0.00949 µM, first compound 3.16 µM
[24] = second compound 0.00949 µM, first compound 10 µM
[25] = second compound 0.03 µM, first compound 0.0316 µM
[26] = second compound 0.03 µM, first compound 0.1 µM
[27] = second compound 0.03 µM, first compound 0.316 µM
[28] = second compound 0.03 µM, first compound 1 µM
[29] = second compound 0.03 µM, first compound 3.16 µM
[30] = second compound 0.03 µM, first compound 10 µM
[31] = second compound 0.0949 µM, first compound 0.0316 µM
[32] = second compound 0.0949 µM, first compound 0.1 µM
[33] = second compound 0.0949 µM, first compound 0.316 µM
[34] = second compound 0.0949 µM, first compound 1 µM
[35] = second compound 0.0949 µM, first compound 3.16 µM
[36] = second compound 0.0949 µM, first compound 10 µM
[37] = second compound 0.3 µM, first compound 0.0316 µM
[38] = second compound 0.3 µM, first compound 0.1 µM
[39] = second compound 0.3 µM, first compound 0.316 µM
[40] = second compound 0.3 µM, first compound 1 µM
[41] = second compound 0.3 µM, first compound 3.16 µM
[42] = second compound 0.3 µM, first compound 10 µM
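Further: spheroids exposed to agents for one week before readout.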
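Wherever viability, T/C is given: percent viability relative to DMSO vehicle control wells as 100%.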

SMILES: NC1c2ccccc2OC12CCN(c1cnc3c(N4CCCc5ncccc54)n[nH]c3n1)CC2 (configuration not stated) + CCn1c(-c2cccnc2C(C)OC)c2c3cc(ccc31)N1CCOC(CC(NC(=O)C(C(C)C)N(C)C(=O)C3(F)CCN(C(=O)C#CC(C)(C)N(C)C)CC3)C(=O)N3CCCC(N3)C(=O)OCC(C)(C)C2)C1
IC50 [1]: > 10 µM
IC50 [2]: > 10 µM
IC50 [3]: > 10 µM
IC50 [4]: > 10 µM
IC50 [5]: > 10 µM
IC50 [6]: > 10 µM
viability, T/C [7]: 113%
viability, T/C [8]: 81.5%
viability, T/C [9]: 109%
viability, T/C [10]: 69.6%
viability, T/C [11]: 82.1%
viability, T/C [12]: 74.5%
viability, T/C [13]: 113%
viability, T/C [14]: 59%
viability, T/C [15]: 102%
viability, T/C [16]: 63.4%
viability, T/C [17]: 91.9%
viability, T/C [18]: 96.9%
viability, T/C [19]: 92.4%
viability, T/C [20]: 76.4%
viability, T/C [21]: 77.6%
viability, T/C [22]: 88.4%
viability, T/C [23]: 104%
viability, T/C [24]: 93.2%
viability, T/C [25]: 62.7%
viability, T/C [26]: 73.7%
viability, T/C [27]: 96.9%
viability, T/C [28]: 74.3%
viability, T/C [29]: 104%
viability, T/C [30]: 94.8%
viability, T/C [31]: 80.9%
viability, T/C [32]: 91.1%
viability, T/C [33]: 128%
viability, T/C [34]: 91.8%
viability, T/C [35]: 117%
viability, T/C [36]: 107%
viability, T/C [37]: 94.4%
viability, T/C [38]: 89.3%
viability, T/C [39]: 96%
viability, T/C [40]: 103%
viability, T/C [41]: 147%
viability, T/C [42]: 91.9%

SMILES: Cc1nc(N2CCC3(CC2)COC(C)C3N)c(CO)nc1Sc1ccnc(N)c1Cl (configuration not stated) + CCn1c(-c2cccnc2C(C)OC)c2c3cc(ccc31)N1CCOC(CC(NC(=O)C(C(C)C)N(C)C(=O)C3(F)CCN(C(=O)C#CC(C)(C)N(C)C)CC3)C(=O)N3CCCC(N3)C(=O)OCC(C)(C)C2)C1
IC50 [1]: > 10 µM
IC50 [2]: > 10 µM
IC50 [3]: > 10 µM
IC50 [4]: > 10 µM
IC50 [5]: > 10 µM
IC50 [6]: > 10 µM
viability, T/C [7]: 123%
viability, T/C [8]: 90.2%
viability, T/C [9]: 119%
viability, T/C [10]: 70.1%
viability, T/C [11]: 67.3%
viability, T/C [12]: 84.8%
viability, T/C [13]: 89.2%
viability, T/C [14]: 89.6%
viability, T/C [15]: 84.7%
viability, T/C [16]: 80.3%
viability, T/C [17]: 86.4%
viability, T/C [18]: 88.9%
viability, T/C [19]: 80.4%
viability, T/C [20]: 83.1%
viability, T/C [21]: 87%
viability, T/C [22]: 90.5%
viability, T/C [23]: 84%
viability, T/C [24]: 82.2%
viability, T/C [25]: 92.4%
viability, T/C [26]: 84.7%
viability, T/C [27]: 89.1%
viability, T/C [28]: 82.6%
viability, T/C [29]: 74.7%
viability, T/C [30]: 97.3%
viability, T/C [31]: 68.9%
viability, T/C [32]: 101%
viability, T/C [33]: 95.9%
viability, T/C [34]: 90.3%
viability, T/C [35]: 106%
viability, T/C [36]: 76.1%
viability, T/C [37]: 95.7%
viability, T/C [38]: 89.2%
viability, T/C [39]: 93.4%
viability, T/C [40]: 144%
viability, T/C [41]: 122%
viability, T/C [42]: 114%

SMILES: Nc1ccn(C2OC(CO)C(O)C2(F)F)c(=O)n1 (configuration not stated) + C=CC(=O)N1CCN(c2nc(OCC3CCCN3C)nc3c(F)c(-c4nc(N)cc(C)c4C(F)(F)F)c(Cl)cc23)C(C)C1
IC50 (curve of first compound, second compound 0.00316 µM): 0.00689 µM
IC50 (curve of first compound, second compound 0.01 µM): 0.00814 µM
IC50 (curve of first compound, second compound 0.0316 µM): 0.00688 µM
IC50 (curve of first compound, second compound 0.1 µM): 0.00658 µM
IC50 (curve of first compound, second compound 0.316 µM): 0.00655 µM
IC50 (curve of first compound, second compound 1 µM): 0.00683 µM
viability, T/C (second compound 0.00316 µM, first compound 0.00316 µM): 108%
viability, T/C (second compound 0.00316 µM, first compound 0.01 µM): 22.2%
viability, T/C (second compound 0.00316 µM, first compound 0.0316 µM): 1.32%
viability, T/C (second compound 0.00316 µM, first compound 0.1 µM): 1.25%
viability, T/C (second compound 0.00316 µM, first compound 0.316 µM): 1.36%
viability, T/C (second compound 0.00316 µM, first compound 1 µM): 1.34%
viability, T/C (second compound 0.01 µM, first compound 0.00316 µM): 113%
viability, T/C (second compound 0.01 µM, first compound 0.01 µM): 36.4%
viability, T/C (second compound 0.01 µM, first compound 0.0316 µM): 1.5%
viability, T/C (second compound 0.01 µM, first compound 0.1 µM): 1.37%
viability, T/C (second compound 0.01 µM, first compound 0.316 µM): 1.44%
viability, T/C (second compound 0.01 µM, first compound 1 µM): 1.42%
viability, T/C (second compound 0.0316 µM, first compound 0.00316 µM): 100%
viability, T/C (second compound 0.0316 µM, first compound 0.01 µM): 25.8%
viability, T/C (second compound 0.0316 µM, first compound 0.0316 µM): 1.29%
viability, T/C (second compound 0.0316 µM, first compound 0.1 µM): 1.37%
viability, T/C (second compound 0.0316 µM, first compound 0.316 µM): 1.47%
viability, T/C (second compound 0.0316 µM, first compound 1 µM): 1.19%
viability, T/C (second compound 0.1 µM, first compound 0.00316 µM): 89.6%
viability, T/C (second compound 0.1 µM, first compound 0.01 µM): 27.3%
viability, T/C (second compound 0.1 µM, first compound 0.0316 µM): 1.5%
viability, T/C (second compound 0.1 µM, first compound 0.1 µM): 1.39%
viability, T/C (second compound 0.1 µM, first compound 0.316 µM): 1.15%
viability, T/C (second compound 0.1 µM, first compound 1 µM): 1.1%
viability, T/C (second compound 0.316 µM, first compound 0.00316 µM): 93.6%
viability, T/C (second compound 0.316 µM, first compound 0.01 µM): 24.8%
viability, T/C (second compound 0.316 µM, first compound 0.0316 µM): 1.51%
viability, T/C (second compound 0.316 µM, first compound 0.1 µM): 1.29%
viability, T/C (second compound 0.316 µM, first compound 0.316 µM): 1.52%
viability, T/C (second compound 0.316 µM, first compound 1 µM): 1.25%
viability, T/C (second compound 1 µM, first compound 0.00316 µM): 93.5%
viability, T/C (second compound 1 µM, first compound 0.01 µM): 28.4%
viability, T/C (second compound 1 µM, first compound 0.0316 µM): 1.78%
viability, T/C (second compound 1 µM, first compound 0.1 µM): 1.63%
viability, T/C (second compound 1 µM, first compound 0.316 µM): 1.74%
viability, T/C (second compound 1 µM, first compound 1 µM): 1.61%

Continued, in another order:

IC50 (curve of compound): > 1 µM
SMILES: CCN1CCN(Cc2ccc(Nc3ncc(F)c(-c4cc(F)c5nc(C)n(C(C)C)c5c4)n3)nc2)CC1
viability, T/C (compound 0.00316 µM): 113% [middle of 4 runs]
viability, T/C (compound 0.01 µM): 100% [middle of 4 runs]
viability, T/C (compound 0.316 µM): 94.4% [middle of 4 runs]
viability, T/C (compound 1 µM): 84% [middle of 4 runs]

IC50 (compound alone, run of 06/10/2024): > 1 µM
IC50 (curve of compound): > 1 µM
SMILES: C=CC(=O)N1CCN(c2nc(OCC3CCCN3C)nc3c(F)c(-c4nc(N)cc(C)c4C(F)(F)F)c(Cl)cc23)C(C)C1 (configuration not stated)

IC50 (curve of compound): > 10 µM
SMILES: Cc1nc(N2CCC3(CC2)COC(C)C3N)c(CO)nc1Sc1ccnc(N)c1Cl (configuration not stated)
viability, T/C (compound 0.316 µM): 108% [middle of 4 runs]
viability, T/C (compound 1 µM): 102% (2×) and 73.6% and 119%
viability, T/C (compound 10 µM): 95.5% [middle of 4 runs]
